# Patent US20170226123A1, “Phenylaminopyrimidine-Derived Compounds, Method for Obtaining, Using Said Compounds in the Treatment of Cancer, and Treatment Methods” (Fundacao Oswaldo Cruz, priority 2014, published 2017)
# Entries after “also recorded” stand apart in the source; their conditions may differ.
# Key:
# K562-Lucena 1 [1] = conditions: MTT, 72 h; for viability reduction compared between K562 and Lucena lineages: FIG. 2A
# Experimental: (§3) Cell viability was evaluated through the MTT method, after 72 hours of incubation with TKIs. MTT is a colorimetric method which measures mitochondrial dehydrogenase activity, based on the ability of living cells to reduce the salt, 3-(4,5-dimethylazole-2-yl)-2,5-diphenyltetrazolium bromide in the product formazan.
# (§4) Cells were cultured in plates of 96 wells at the concentration of 1×10^4 cells/well in 200 μl of RPMI supplemented with 10% fetal bovine serum. 10 μl of each of the novel TKIs, or imatinib, previously diluted in RPMI medium, were added in different concentrations, and no molecule or imatinib was added in the control group. The plates were kept in a humid atmosphere containing 5% CO2 at 37° C. for 72 hours. Four hours before completion of the established time (72 hours), 20 μl of MTT (Sigma) (final concentration of 10 μg/ml) were added. The plates were kept in the oven for the remaining four hours. 180 μl of the supernatant were removed from each well, and then 150 μl of dimethylsulfoxide (DMSO; Sigma) were added, homogenizing thoroughly for complete dissolution of the salt crystals formed by mitochondrial metabolism, thus resulting in a coloration. […] The 96-well plate was read by the spectrophotometer (Spectramax Plus 384), using a wavelength of 570 nm. The results were analyzed through the absorbance of each well. The viability percentage was obtained through the following formula: [(Absorbance of cells treated with TKIs or imatinib/Absorbance of untreated cells)×100]. All the tests were performed in three different occasions. Three experiments, at least, independent, were carried out and triplicates were made for each concentration.
# (§5) The compounds were tested for their cytotoxicity in this lineage.
# (§6) The viability of the Lucena cell lineage was evaluated after 72 h of incubation with the novel compounds, through the MTT assay.
# K562 [2] = assay: Cell cycle and DNA fragmentation analysis (propidium iodide, flow cytometry), K562; format: cell-based, human; conditions: K562, 24 h
# Experimental: (§1) The analysis of the impact of the new compounds on the phases of the cell cycle and on the induction of DNA fragmentation were carried out by DNA labeling with the fluorochrome propidium iodide. The assays were analyzed by flow cytometry and the results were analyzed in relation to the control (cells without treatment).
# (§2) The induction of DNA fragmentation by the new compounds and by imatinib was assessed by flow cytometry. The analysis of cell cycle and DNA fragmentation was carried out upon 24 hours of incubation with the compounds.
# CML = CML patients treated with imatinib (Hunter, 2007); cited from earlier work
# K562-Lucena 1 [3] = assay: cells; conditions: Homo sapiens, K562-Lucena 1, 72 h, read-out: reduction in the viability
# Experimental: as §3, §4, §5, §6
# K562 [4] = assay: MTT cell viability, K562 lineage; conditions: for Cell viability percentage: average of three independent experiments;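 as to all read-outs here: K562 cells (BCR-ABL expressing, CML derived), MTT formazan absorbance after 72 h exposure, compared with untreated control cells, at least three independent experiments run in triplicate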
# Experimental: as §3
# Cells were cultured in plates of 96 wells at the concentration of 1×10^4 cells/well in 200 μl of RPMI supplemented with 10% fetal bovine serum. 10 μl of each of the novel TKIs, or imatinib, previously diluted in RPMI medium, were added in different concentrations, and no molecule or imatinib was added in the control group. The plates were kept in a humid atmosphere containing 5% CO2 at 37° C. for 72 hours. Four hours before completion of the established time (72 hours), 20 μl of MTT (Sigma) (final concentration of 10 μg/ml) were added. The plates were kept in the oven for the remaining four hours. 180 μl of the supernatant were removed from each well, and then 150 μl of dimethylsulfoxide (DMSO; Sigma) were added, homogenizing thoroughly for complete dissolution of the salt crystals formed by mitochondrial metabolism, thus resulting in a coloration. […] The 96-well plate was read by the spectrophotometer (Spectramax Plus 384), using a wavelength of 570 nm. The results were analyzed through the absorbance of each well. The viability percentage was obtained through the following formula: [(Absorbance of cells treated with TKIs or imatinib/Absorbance of untreated cells)×100]. All the tests were performed in three different occasions. Three experiments, at least, independent, were carried out and triplicates were made for each concentration. By means of this method, we detected the cell inhibition percentage of each new molecule and we compared it with the percentage of viability reduction caused by imatinib.
# K562 [5] = assay: Annexin V/propidium iodide cell death assay by flow cytometry, K562; conditions: K562, 24 h, 0.25-1.0 μM
# Experimental: (§7) Cells were incubated for 24 hours with or without addition of the novel compounds. The index of apoptosis induced by the novel compounds was obtained as follows: percentage of cells in induced apoptosis (treated with the drugs) minus the percentage of cells in spontaneous apoptosis (not treated with the drugs) (Vasconcelos et aL, 2007; Vasconcelos et al., 2011).
# (§8) To analyze the apoptosis induction potential by the new imatinib derivatives, annexin V/propidium iodide assay was used by flow cytometry.
# (§9) To analyze death by apoptosis, the cells were incubated for 24 hours instead of 72 hours.
# (§10) Cells without addition of any drug were used for the evaluation of spontaneous death. Cells incubated with DMSO (used to solubilize the compounds derived from imatinib) were used to discard the effect of this substance on cell death induction.
# K562-Lucena 1 [6] = assay: Annexin V/propidium iodide cell death assay by flow cytometry, K562-Lucena 1; conditions: for induction of cell death (annexin-positive and annexin/PI-positive cells): Lucena, 0.25-1.0 μM
# Experimental: as §7, §8, §9, §10
# K562-Lucena 1 [7] = assay: Cell cycle and DNA fragmentation analysis (propidium iodide, flow cytometry), K562-Lucena 1; format: cell-based, human; conditions: 24 h
# Experimental: as §1, §2
# [8] = Homo sapiens, K562, 72 h, read-out: Cell viability percentage
Compound,increase in the number of cells in G0/G1 phase (halt in G0/G1) (K562 [2]),induction of cell death (annexin-positive and annexin/PI-positive cells) (K562 [5]),viability reduction compared between K562 and Lucena lineages (K562-Lucena 1 [1]),induction of cell death (annexin-positive and annexin/PI-positive cells) (K562-Lucena 1 [6]; 24 h),"Cell viability percentage (K562 [4]; K562, MTT, 72 h, 0.05 μM)","Cell viability percentage (K562 [4]; K562, MTT, 72 h, 0.1 μM)","Cell viability percentage (K562 [4]; K562, MTT, 72 h, 0.25 μM)","Cell viability percentage (K562 [4]; K562, MTT, 72 h, 0.5 μM)","Cell viability percentage (K562 [4]; K562, MTT, 72 h, 1.0 μM)","Cell viability percentage (K562 [4]; K562, MTT, 72 h, 1.5 μM)","Cell viability percentage (K562 [4]; K562, MTT, 72 h, 2.0 μM)","Cell viability percentage (K562 [4]; K562, MTT, 72 h, 2.5 μM)","Cell viability percentage (K562 [4]; K562, MTT, 72 h, 3.0 μM)","Cell viability percentage (K562 [4]; K562, MTT, 72 h, 4.0 μM)","Cell viability percentage (K562 [4]; K562, MTT, 72 h, 5.0 μM)",also measured
"Cc1ccc(NC(=O)c2ccc(CN3CCN(C)CC3)cc2)cc1Nc1nccc(-c2cccnc2)n1 [Imatinib, imatinib, reference compound]",about 10%,–,–,–,–,–,–,–,–,–,–,–,–,–,–,concentration from which viability reduction reached a plateau (K562-Lucena 1 [1]; Lucena): 1.5 µM; DNA fragmentation (K562 [2]): induced DNA fragmentation; patients reaching hematological remission (CML): ~100%; cytotoxicity at 0.25 µM (K562-Lucena 1 [3]): ~60%; viability at 0.05 µM (K562 [4]; [8]): 93.5%; viability at 0.1 µM (K562 [4]; [8]): 63.4%; viability at 0.25 µM (K562 [4]; [8]): 54.5%; viability at 0.5 µM (K562 [4]; [8]): 20.1%; viability at 1 µM (K562 [4]; [8]): 16.3%; viability at 1.5 µM (K562 [4]; [8]): 14.3%; viability at 2 µM (K562 [4]; [8]): 19.8%; viability at 2.5 µM (K562 [4]; [8]): 19.4%; viability at 3 µM (K562 [4]; [8]): 14.8%; viability at 4 µM (K562 [4]; [8]): 13.5%; viability at 5 µM (K562 [4]; [8]): 15%
"C[C@H]1[C@@H](OC(=O)CCC(=O)O)O[C@@H]2O[C@@]3(C)CC[C@H]4[C@H](C)CC[C@@H]1[C@@]24OO3.Cc1ccc(N)cc1Nc1nccc(-c2cccnc2)n1 [Compound 04, 4-methyl-3-((4-(pyridin-3-yl)pyrimidin-2-yl)amino)benzenaminium-4-oxo-4-(((3R,5aS,6R,8aS,9R,10R,12R,12aR)-3,6,9-trimethyldecahydro-3H-3,12-epoxy[1,2]dioxepin[4,3-yl]isochromen-10-yl)oxy)butanoate]",–,"induced cell death, probably by apoptosis",more effective in the Lucena lineage; also recorded: greater percentage of reduction of cell viability than the K562 lineage,"induced cell death, probably by apoptosis",97.54%,86.68%,87.20%,79.53%,85.68%,69.52%,56.13%,53.28%,48.95%,48.17%,47.69%,"alterations in the cell cycle (K562 [2]): did not foster alterations in the cell cycle; cell death rate compared with imatinib (K562-Lucena 1 [6]; Lucena lineage): higher; reduction of viability (K562 [4]; K562, MTT, 72 h, 2.5 μM): 50%"
"C[C@H]1[C@@H](OC(=O)CCC(=O)O)O[C@@H]2O[C@@]3(C)CC[C@H]4[C@H](C)CC[C@@H]1[C@@]24OO3.Cc1ccc(NC(=O)c2ccc(CN3CCN(C)CC3)cc2)cc1Nc1nccc(-c2cccnc2)n1 [Compound 03, N-(2-methyl-5-(4-((4-methylpiperazine-1-yl)methyl)benzamide)phenyl)-4-(pyridin-3-yl)pyrimidin-2-aminium-4-oxo-4-(((3R,5aS,6R,8aS,9R,10R,12R,12aR)-3,6,9-trimethyldecahydro-3H-3, 12-epoxy[1,2]dioxepin[4,3-yl]isochromen-10-yl)oxy)butanoate]",about 10%,"induced cell death, probably by apoptosis",reduced the viability in the two lineages in a similar way,"induced cell death, probably by apoptosis",77.68%,82.43%,43.45%,20.16%,18.11%,16.73%,15.12%,17.89%,16.69%,16.51%,15.76%,"cell death rate in Lucena compared with K562 (K562-Lucena 1 [6]; 24 h): greater cell death rate than the K562 lineage; DNA fragmentation (K562-Lucena 1 [7]): induced DNA fragmentation; reduction in cell viability (K562 [4]; K562, MTT, 72 h, 0.25 μM): about 50%"
